Results reported in ChEMBL document CHEMBL4507285, “Data for DCP probe MRL-SYKi” (2021).

Key:
[1] = target: Tyrosine-protein kinase Fyn (Homo sapiens, UniProt P06241); details: Compound concentration 100.0 nM
[2] = target: Receptor-interacting serine/threonine-protein kinase 2 (Homo sapiens) (UniProt O43353); details: Compound concentration 100.0 nM
[3] = target: Ephrin type-A receptor 5 (Homo sapiens) (UniProt P54756); details: Compound concentration 100.0 nM
[4] = target: Mitogen-activated protein kinase 10 (Homo sapiens) (UniProt P53779); details: Compound concentration 100.0 nM
[5] = target: Mitogen-activated protein kinase 9 (Homo sapiens) (UniProt P45984); details: Compound concentration 100.0 nM
[6] = target: Hormonally up-regulated neu tumor-associated kinase (Homo sapiens) (UniProt P57058); details: Compound concentration 100.0 nM
[7] = target: Muscarinic acetylcholine receptor M3 (Homo sapiens) (UniProt P20309); details: Compound concentration 10.0 uM
[8] = target: Cyclin-dependent kinase 4 (Homo sapiens) (UniProt P11802); details: Compound concentration 100.0 nM
[9] = target: Serine/threonine-protein kinase ULK2 (Homo sapiens) (UniProt Q8IYT8); details: Compound concentration 100.0 nM
[10] = target: Mitogen-activated protein kinase kinase kinase 14 (Homo sapiens) (UniProt Q99558); details: Compound concentration 100.0 nM
Chain of Mitogen-activated protein kinase kinase kinase 14 (Homo sapiens) (Q99558 whole entry, looked up): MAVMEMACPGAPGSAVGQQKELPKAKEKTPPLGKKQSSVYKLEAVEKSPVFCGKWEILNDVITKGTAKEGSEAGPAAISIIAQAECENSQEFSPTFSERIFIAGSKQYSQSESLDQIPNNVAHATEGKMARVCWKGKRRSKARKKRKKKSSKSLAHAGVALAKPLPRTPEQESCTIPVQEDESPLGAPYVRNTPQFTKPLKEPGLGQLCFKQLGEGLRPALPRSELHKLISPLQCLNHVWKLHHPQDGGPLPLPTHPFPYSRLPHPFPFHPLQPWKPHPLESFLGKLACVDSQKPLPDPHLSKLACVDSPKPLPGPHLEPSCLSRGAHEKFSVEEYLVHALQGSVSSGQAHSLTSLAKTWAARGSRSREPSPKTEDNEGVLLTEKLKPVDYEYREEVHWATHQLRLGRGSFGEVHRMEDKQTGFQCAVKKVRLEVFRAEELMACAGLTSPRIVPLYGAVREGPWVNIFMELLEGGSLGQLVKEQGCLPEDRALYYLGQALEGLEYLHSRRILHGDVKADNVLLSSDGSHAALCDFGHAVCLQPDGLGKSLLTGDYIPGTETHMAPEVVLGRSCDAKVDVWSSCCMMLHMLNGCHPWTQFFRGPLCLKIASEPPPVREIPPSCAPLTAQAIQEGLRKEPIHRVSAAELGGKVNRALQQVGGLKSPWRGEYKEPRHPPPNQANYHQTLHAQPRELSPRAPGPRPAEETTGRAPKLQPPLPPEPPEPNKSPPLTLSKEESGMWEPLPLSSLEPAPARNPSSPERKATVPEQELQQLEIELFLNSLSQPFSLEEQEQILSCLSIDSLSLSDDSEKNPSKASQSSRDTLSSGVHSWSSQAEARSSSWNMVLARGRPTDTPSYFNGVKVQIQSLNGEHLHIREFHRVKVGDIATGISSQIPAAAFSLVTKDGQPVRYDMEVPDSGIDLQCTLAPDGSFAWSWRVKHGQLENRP

[11] = target: Ribosomal protein S6 kinase alpha-1 (Homo sapiens) (UniProt Q15418); details: Compound concentration 100.0 nM
[12] = target: Tyrosine-protein kinase HCK (Homo sapiens) (UniProt P08631); details: Compound concentration 100.0 nM
[13] = organism: Rattus norvegicus; details: Compound concentration 10.0 uM
[14] = target: Serine/threonine-protein kinase PAK 1 (Homo sapiens) (UniProt Q13153); details: Compound concentration 100.0 nM
[15] = target: Tyrosine-protein kinase Srms (Homo sapiens) (UniProt Q9H3Y6); details: Compound concentration 100.0 nM
[16] = target: Serine/threonine-protein kinase haspin (Homo sapiens) (UniProt Q8TF76); details: Compound concentration 100.0 nM
[17] = tested on: Phosphatidylinositol 4,5-bisphosphate 3-kinase catalytic subunit alpha isoform (Homo sapiens), P42336 [H1047L]; details: Compound concentration 100.0 nM
Chain of Phosphatidylinositol 4,5-bisphosphate 3-kinase catalytic subunit alpha isoform (Homo sapiens), P42336 [H1047L] (P42336 whole entry H1047L, canonical isoform): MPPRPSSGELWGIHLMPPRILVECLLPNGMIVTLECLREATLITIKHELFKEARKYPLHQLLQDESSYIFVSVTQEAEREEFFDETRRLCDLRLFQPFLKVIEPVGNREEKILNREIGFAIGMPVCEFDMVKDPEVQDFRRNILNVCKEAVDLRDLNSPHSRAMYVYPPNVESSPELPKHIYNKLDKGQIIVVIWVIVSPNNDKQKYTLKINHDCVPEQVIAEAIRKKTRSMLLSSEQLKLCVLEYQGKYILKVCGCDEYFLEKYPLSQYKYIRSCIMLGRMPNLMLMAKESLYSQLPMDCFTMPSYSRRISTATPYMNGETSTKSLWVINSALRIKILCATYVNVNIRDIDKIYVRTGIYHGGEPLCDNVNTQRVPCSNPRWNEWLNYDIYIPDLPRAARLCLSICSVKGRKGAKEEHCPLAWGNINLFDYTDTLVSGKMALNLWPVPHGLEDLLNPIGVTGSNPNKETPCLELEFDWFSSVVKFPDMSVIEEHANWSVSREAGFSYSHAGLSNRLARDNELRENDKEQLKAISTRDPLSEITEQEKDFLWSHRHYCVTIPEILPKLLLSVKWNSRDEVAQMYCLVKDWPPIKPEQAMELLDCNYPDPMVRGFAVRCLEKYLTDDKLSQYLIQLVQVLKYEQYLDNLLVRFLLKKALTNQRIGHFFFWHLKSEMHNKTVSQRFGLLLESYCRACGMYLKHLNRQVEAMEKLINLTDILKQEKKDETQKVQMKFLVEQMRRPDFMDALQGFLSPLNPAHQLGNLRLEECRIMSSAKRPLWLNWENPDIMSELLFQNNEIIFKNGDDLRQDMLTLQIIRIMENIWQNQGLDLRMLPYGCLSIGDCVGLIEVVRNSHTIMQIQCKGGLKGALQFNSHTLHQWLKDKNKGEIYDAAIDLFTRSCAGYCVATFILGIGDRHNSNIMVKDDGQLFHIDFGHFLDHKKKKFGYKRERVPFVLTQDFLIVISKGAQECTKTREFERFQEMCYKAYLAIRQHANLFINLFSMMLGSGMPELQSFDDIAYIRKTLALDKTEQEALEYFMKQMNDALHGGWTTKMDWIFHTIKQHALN

[18] = tested on: Epidermal growth factor receptor (Homo sapiens), P00533 [UNDEFINED MUTATION]; details: Compound concentration 100.0 nM
[19] = target: Activin receptor type-2B (Homo sapiens) (UniProt Q13705); details: Compound concentration 100.0 nM
[20] = target: Serine/threonine-protein kinase PAK 6 (Homo sapiens) (UniProt Q9NQU5); details: Compound concentration 100.0 nM
[21] = target: Serine/threonine-protein kinase Nek11 (Homo sapiens) (UniProt Q8NG66); details: Compound concentration 100.0 nM
[22] = target: Cyclin-dependent kinase 2 homolog (Plasmodium falciparum (isolate 3D7)) (UniProt P61075); details: Compound concentration 100.0 nM
[23] = target: Protein kinase C delta type (Homo sapiens) (UniProt Q05655); details: Compound concentration 100.0 nM
[24] = target: Mitogen-activated protein kinase kinase kinase 7 (Homo sapiens) (UniProt O43318); details: Compound concentration 100.0 nM
[25] = target: Serine/threonine-protein kinase Nek6 (Homo sapiens) (UniProt Q9HC98); details: Compound concentration 100.0 nM
[26] = target: Activin receptor type-1-like (Homo sapiens) (UniProt P37023); details: Compound concentration 100.0 nM
[27] = target: Serine/threonine-protein kinase STK11 (Homo sapiens) (UniProt Q15831); details: Compound concentration 100.0 nM
Chain of Serine/threonine-protein kinase STK11 (Homo sapiens) (Q15831 whole entry): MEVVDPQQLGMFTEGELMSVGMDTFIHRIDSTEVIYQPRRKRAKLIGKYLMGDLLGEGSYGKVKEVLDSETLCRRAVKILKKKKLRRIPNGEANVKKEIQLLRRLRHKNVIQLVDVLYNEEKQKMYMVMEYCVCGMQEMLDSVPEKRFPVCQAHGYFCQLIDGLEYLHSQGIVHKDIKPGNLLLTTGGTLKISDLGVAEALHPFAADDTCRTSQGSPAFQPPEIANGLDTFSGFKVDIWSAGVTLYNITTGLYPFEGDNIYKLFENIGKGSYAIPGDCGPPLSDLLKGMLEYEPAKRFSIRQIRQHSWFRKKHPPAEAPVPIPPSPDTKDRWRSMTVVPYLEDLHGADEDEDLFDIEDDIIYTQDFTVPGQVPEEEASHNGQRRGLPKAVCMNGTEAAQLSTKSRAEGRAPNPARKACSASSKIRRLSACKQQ

[28] = target: Mitogen-activated protein kinase kinase kinase 15 (Homo sapiens) (UniProt Q6ZN16); details: Compound concentration 100.0 nM
[29] = tested on: Proto-oncogene tyrosine-protein kinase receptor Ret (Homo sapiens), P07949 [M918T]; details: Compound concentration 100.0 nM
[30] = target: Microtubule-associated serine/threonine-protein kinase 1 (Homo sapiens) (UniProt Q9Y2H9); details: Compound concentration 100.0 nM
[31] = target: Cyclin-dependent kinase 5 (Homo sapiens) (UniProt Q00535); details: Compound concentration 100.0 nM
Chain of Cyclin-dependent kinase 5 (Homo sapiens) (Q00535 whole entry, looked up): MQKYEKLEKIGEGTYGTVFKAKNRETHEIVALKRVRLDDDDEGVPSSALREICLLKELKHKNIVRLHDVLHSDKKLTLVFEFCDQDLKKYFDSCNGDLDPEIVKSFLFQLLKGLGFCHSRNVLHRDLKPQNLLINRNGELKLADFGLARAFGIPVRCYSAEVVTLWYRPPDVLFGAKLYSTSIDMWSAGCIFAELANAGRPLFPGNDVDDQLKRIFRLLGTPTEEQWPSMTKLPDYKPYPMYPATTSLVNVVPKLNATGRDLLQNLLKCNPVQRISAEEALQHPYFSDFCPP

[32] = target: Serine/threonine-protein kinase PAK 4 (Homo sapiens) (UniProt O96013); details: Compound concentration 100.0 nM
[33] = target: Rho-associated protein kinase 2 (Homo sapiens) (UniProt O75116); details: Compound concentration 100.0 nM
[34] = target: Rhodopsin kinase GRK1 (Homo sapiens) (UniProt Q15835); details: Compound concentration 100.0 nM
[35] = target: Muscarinic acetylcholine receptor M5 (Homo sapiens) (UniProt P08912); details: Compound concentration 10.0 uM
[36] = target: Cyclin-dependent kinase 16 (Homo sapiens) (UniProt Q00536); details: Compound concentration 100.0 nM
[37] = target: Serine/threonine-protein kinase DCLK3 (Homo sapiens) (UniProt Q9C098); details: Compound concentration 100.0 nM
Chain of Serine/threonine-protein kinase DCLK3 (Homo sapiens) (Q9C098 whole entry): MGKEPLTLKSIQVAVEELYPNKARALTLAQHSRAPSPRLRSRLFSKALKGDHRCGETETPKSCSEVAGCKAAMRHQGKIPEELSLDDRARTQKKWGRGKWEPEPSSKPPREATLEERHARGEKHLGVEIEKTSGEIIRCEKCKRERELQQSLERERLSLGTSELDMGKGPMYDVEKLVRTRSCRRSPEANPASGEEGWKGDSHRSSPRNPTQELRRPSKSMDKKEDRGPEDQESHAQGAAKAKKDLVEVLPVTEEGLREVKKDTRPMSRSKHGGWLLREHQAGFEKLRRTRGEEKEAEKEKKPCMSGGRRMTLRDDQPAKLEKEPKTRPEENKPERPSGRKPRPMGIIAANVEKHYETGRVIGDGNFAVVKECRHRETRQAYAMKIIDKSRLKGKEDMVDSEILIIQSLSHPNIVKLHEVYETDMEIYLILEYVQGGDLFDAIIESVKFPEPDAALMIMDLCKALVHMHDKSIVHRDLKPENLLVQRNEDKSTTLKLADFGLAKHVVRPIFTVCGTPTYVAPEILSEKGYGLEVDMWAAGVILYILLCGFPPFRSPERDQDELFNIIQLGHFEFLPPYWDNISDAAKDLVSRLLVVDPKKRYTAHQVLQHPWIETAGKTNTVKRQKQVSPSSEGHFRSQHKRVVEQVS

[38] = target: Serine/threonine-protein kinase RIO3 (Homo sapiens) (UniProt O14730); details: Compound concentration 100.0 nM
[39] = tested on: Mast/stem cell growth factor receptor Kit (Homo sapiens), P10721 [D816V]; details: Compound concentration 100.0 nM
[40] = target: Tyrosine-protein kinase JAK1 (Homo sapiens) (UniProt P23458); details: Compound concentration 100.0 nM
Chain of Tyrosine-protein kinase JAK1 (Homo sapiens) (P23458 whole entry): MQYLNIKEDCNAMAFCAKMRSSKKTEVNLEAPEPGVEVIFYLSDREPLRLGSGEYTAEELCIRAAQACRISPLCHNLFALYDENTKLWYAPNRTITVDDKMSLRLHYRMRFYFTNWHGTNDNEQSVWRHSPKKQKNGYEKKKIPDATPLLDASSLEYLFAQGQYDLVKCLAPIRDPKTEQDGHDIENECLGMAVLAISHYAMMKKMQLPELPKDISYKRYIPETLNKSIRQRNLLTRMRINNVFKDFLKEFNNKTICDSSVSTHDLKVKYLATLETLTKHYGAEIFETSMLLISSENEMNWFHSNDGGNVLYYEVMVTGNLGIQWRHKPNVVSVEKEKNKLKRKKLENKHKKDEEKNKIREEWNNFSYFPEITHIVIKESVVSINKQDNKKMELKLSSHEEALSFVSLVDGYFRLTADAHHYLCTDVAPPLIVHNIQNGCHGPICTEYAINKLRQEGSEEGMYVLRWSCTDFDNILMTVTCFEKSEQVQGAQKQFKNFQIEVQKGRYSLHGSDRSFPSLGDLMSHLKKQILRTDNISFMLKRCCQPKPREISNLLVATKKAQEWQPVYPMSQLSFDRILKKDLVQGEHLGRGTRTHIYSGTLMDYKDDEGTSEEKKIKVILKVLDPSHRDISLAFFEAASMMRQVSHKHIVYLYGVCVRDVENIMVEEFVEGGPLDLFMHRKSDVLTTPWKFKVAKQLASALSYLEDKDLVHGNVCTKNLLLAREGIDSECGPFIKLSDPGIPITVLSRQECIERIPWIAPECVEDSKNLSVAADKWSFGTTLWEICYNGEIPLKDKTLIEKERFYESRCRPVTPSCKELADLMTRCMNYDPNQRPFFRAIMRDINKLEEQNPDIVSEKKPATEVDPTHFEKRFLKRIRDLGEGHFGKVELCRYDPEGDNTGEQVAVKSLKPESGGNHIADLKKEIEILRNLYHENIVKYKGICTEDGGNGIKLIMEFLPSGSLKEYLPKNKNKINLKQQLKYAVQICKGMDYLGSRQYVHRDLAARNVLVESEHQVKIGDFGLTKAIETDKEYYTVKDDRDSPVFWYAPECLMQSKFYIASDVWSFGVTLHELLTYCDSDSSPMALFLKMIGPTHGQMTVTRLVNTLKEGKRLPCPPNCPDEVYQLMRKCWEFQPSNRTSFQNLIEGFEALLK

[41] = target: RAC-alpha serine/threonine-protein kinase (Homo sapiens) (UniProt P31749); details: Compound concentration 100.0 nM
[42] = target: Ephrin type-B receptor 4 (Homo sapiens) (UniProt P54760); details: Compound concentration 100.0 nM
[43] = target: Calcium/calmodulin-dependent protein kinase type 1G (Homo sapiens) (UniProt Q96NX5); details: Compound concentration 100.0 nM
[44] = target: Cyclin-dependent kinase 3 (Homo sapiens) (UniProt Q00526); details: Compound concentration 100.0 nM
Chain of Cyclin-dependent kinase 3 (Homo sapiens) (Q00526 whole entry, looked up): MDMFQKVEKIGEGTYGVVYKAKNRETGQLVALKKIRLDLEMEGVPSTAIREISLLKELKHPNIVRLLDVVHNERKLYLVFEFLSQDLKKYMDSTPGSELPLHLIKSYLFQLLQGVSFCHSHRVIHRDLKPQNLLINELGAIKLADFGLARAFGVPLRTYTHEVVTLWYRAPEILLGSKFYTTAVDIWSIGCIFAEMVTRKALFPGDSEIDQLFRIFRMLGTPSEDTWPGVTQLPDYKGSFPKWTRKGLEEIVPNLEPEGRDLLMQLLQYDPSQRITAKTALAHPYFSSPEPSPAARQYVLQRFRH

[45] = target: Serine/threonine-protein kinase SBK1 (Homo sapiens) (UniProt Q52WX2); details: Compound concentration 100.0 nM
[46] = target: Angiopoietin-1 receptor (Homo sapiens) (UniProt Q02763); details: Compound concentration 100.0 nM

## Cc1ccc(-c2cnc([C@@]3(O)CC[C@H](C(=O)O)C(C)(C)C3)s2)cc1Nc1cccc(C(F)(F)F)n1 [MRL-SYKi-NC]
[1]
  residual activity: 100%
[2]
  residual activity: 96.8%
[3]
  residual activity: 100%
[4]
  residual activity: 37.5%
[5]
  residual activity: 45.3%
[6]
  residual activity: 96.2%
[7]
  inhibition: 6.69%
[8]
  residual activity: 100%
[9]
  residual activity: 76%
[10]
  residual activity: 100%
[11]
  residual activity: 91.2%
[12]
  residual activity: 71.9%
[13]
  inhibition: 71.8%
[14]
  residual activity: 94.5%
[15]
  residual activity: 100%
[16]
  residual activity: 47%
[17]
  residual activity: 94.8%
[18]
  residual activity: 100%
[19]
  residual activity: 100%
[20]
  residual activity: 70.5%
[21]
  residual activity: 93%
[22]
  residual activity: 33%
[23]
  residual activity: 89%
[24]
  residual activity: 92.6%
[25]
  residual activity: 89.7%
[26]
  residual activity: 100%
[27]
  residual activity: 70.8%
[28]
  residual activity: 85%
[29]
  residual activity: 100%
[30]
  residual activity: 100%
[31]
  residual activity: 100%
[32]
  residual activity: 100%
[33]
  residual activity: 85.3%
[34]
  residual activity: 82.1%
[35]
  inhibition: -4.28%
[36]
  residual activity: 93%
[37]
  residual activity: 76.2%
[38]
  residual activity: 100%
[39]
  residual activity: 100%
[40]
  residual activity: 92.6%
[41]
  residual activity: 92.3%
[42]
  residual activity: 100%
[43]
  residual activity: 90.7%
[44]
  residual activity: 92.9%
[45]
  residual activity: 51.1%
[46]
  residual activity: 95.2%

## Cc1cc(Nc2nccc(C)n2)cc(-c2cnc([C@@]3(O)CC[C@H](C(=O)O)C(C)(C)C3)s2)c1 [MRL-SYKi]
[1]
  residual activity: 36.1%
[2]
  residual activity: 83.8%
[3]
  residual activity: 94%
[4]
  residual activity: 67.7%
[5]
  residual activity: 100%
[6]
  residual activity: 100%
[7]
  inhibition: 17.4%
[8]
  residual activity: 85.4%
[9]
  residual activity: 100%
[10]
  residual activity: 89%
[11]
  residual activity: 93%
[12]
  residual activity: 83.3%
[13]
  inhibition: 3.63%
[14]
  residual activity: 100%
[15]
  residual activity: 81.2%
[16]
  residual activity: 90.8%
[17]
  residual activity: 81.7%
[18]
  residual activity: 65%
[19]
  residual activity: 82.8%
[20]
  residual activity: 100%
[21]
  residual activity: 61.2%
[22]
  residual activity: 100%
[23]
  residual activity: 83.7%
[24]
  residual activity: 100%
[25]
  residual activity: 100%
[26]
  residual activity: 66.5%
[27]
  residual activity: 100%
[28]
  residual activity: 80.5%
[29]
  residual activity: 95.5%
[30]
  residual activity: 100%
[31]
  residual activity: 87.6%
[32]
  residual activity: 89.8%
[33]
  residual activity: 85.9%
[34]
  residual activity: 71.7%
[35]
  inhibition: 0.943%
[36]
  residual activity: 100%
[37]
  residual activity: 97.3%
[38]
  residual activity: 77.2%
[39]
  residual activity: 100%
[40]
  residual activity: 31.8%
[41]
  residual activity: 100%
[42]
  residual activity: 100%
[43]
  residual activity: 100%
[44]
  residual activity: 100%
[45]
  residual activity: 100%
[46]
  residual activity: 99%
